Experimental data: the NIST ThermoML archive (doi:10.1016/j.fluid.2019.05.003)

Assay: xn = mol fraction of the nth substance listed
Details: 101 kPa, Liquid; for viscosity: Falling or rolling sphere viscometry; for mass density: Vibrating tube method

CC[N+]1(C)CCOCC1.[Br-] [N-ethyl-N-methylmorpholinium bromide] + O
Details	mass density [kg/m3]	viscosity [mPa·s]
298.15 K, x1 = 0.023	1062.6	1.197
298.15 K, x1 = 0.045	1111.8	1.56
298.15 K, x1 = 0.07	1156	2.228
298.15 K, x1 = 0.1	1197.3	3.5
298.15 K, x1 = 0.128	1227	5.195
298.15 K, x1 = 0.16	1254.9	8.371
298.15 K, x1 = 0.192	1278.3	13.81
298.15 K, x1 = 0.22	1295.2	22.13
298.15 K, x1 = 0.252	1311.3	37.25
303.15 K, x1 = 0.023	1060.7	1.06
303.15 K, x1 = 0.045	1109.6	1.391
303.15 K, x1 = 0.07	1153.6	1.983
303.15 K, x1 = 0.1	1194.6	3.126
303.15 K, x1 = 0.128	1224.2	4.423
303.15 K, x1 = 0.16	1252	7.156
303.15 K, x1 = 0.192	1275.3	11.53
303.15 K, x1 = 0.22	1292.1	18.2
303.15 K, x1 = 0.252	1308.2	29.81
308.15 K, x1 = 0.023	1058.6	0.961
308.15 K, x1 = 0.045	1107.3	1.254
308.15 K, x1 = 0.07	1151	1.778
308.15 K, x1 = 0.1	1191.8	2.816
308.15 K, x1 = 0.128	1221.3	3.944
308.15 K, x1 = 0.16	1249	6.192
308.15 K, x1 = 0.192	1272.3	9.829
308.15 K, x1 = 0.22	1289	15.03
308.15 K, x1 = 0.252	1305	24.22
313.15 K, x1 = 0.023	1056.3	0.876
313.15 K, x1 = 0.045	1104.8	1.136
313.15 K, x1 = 0.07	1148.3	1.566
313.15 K, x1 = 0.1	1189	2.543
313.15 K, x1 = 0.128	1218.4	3.485
313.15 K, x1 = 0.16	1246	5.438
313.15 K, x1 = 0.192	1269.2	8.443
313.15 K, x1 = 0.22	1285.9	12.5
313.15 K, x1 = 0.252	1301.9	19.81
318.15 K, x1 = 0.023	1053.7	0.805
318.15 K, x1 = 0.045	1102.2	1.037
318.15 K, x1 = 0.07	1145.6	1.45
318.15 K, x1 = 0.1	1186.1	2.291
318.15 K, x1 = 0.128	1215.4	3.1
318.15 K, x1 = 0.16	1243	4.738
318.15 K, x1 = 0.192	1266.1	7.253
318.15 K, x1 = 0.22	1282.8	10.46
318.15 K, x1 = 0.252	1298.7	16.49
323.15 K, x1 = 0.023	1051.7	0.756
323.15 K, x1 = 0.045	1099.6	0.953
323.15 K, x1 = 0.07	1142.8	1.328
323.15 K, x1 = 0.1	1183.2	2.098
323.15 K, x1 = 0.128	1212.4	2.776
323.15 K, x1 = 0.16	1239.9	4.235
323.15 K, x1 = 0.192	1263	6.32
323.15 K, x1 = 0.22	1279.7	8.952
323.15 K, x1 = 0.252	1295.6	13.88
328.15 K, x1 = 0.023	1049.5	0.717
328.15 K, x1 = 0.045	1097.1	0.879
328.15 K, x1 = 0.07	1139.8	1.22
328.15 K, x1 = 0.1	1180.2	1.908
328.15 K, x1 = 0.128	1209.4	2.493
328.15 K, x1 = 0.16	1236.8	3.696
328.15 K, x1 = 0.192	1259.9	5.528
328.15 K, x1 = 0.22	1276.5	7.778
328.15 K, x1 = 0.252	1292.4	11.84
333.15 K, x1 = 0.023	1047.3	0.638
333.15 K, x1 = 0.045	1094.6	0.813
333.15 K, x1 = 0.07	1137.3	1.123
333.15 K, x1 = 0.1	1177.3	1.748
333.15 K, x1 = 0.128	1206.3	2.263
333.15 K, x1 = 0.16	1233.7	3.324
333.15 K, x1 = 0.192	1256.7	4.903
333.15 K, x1 = 0.22	1273.3	6.702
333.15 K, x1 = 0.252	1289.2	10.27
338.15 K, x1 = 0.023	1045.1	0.624
338.15 K, x1 = 0.045	1092.1	0.764
338.15 K, x1 = 0.07	1134.6	1.051
338.15 K, x1 = 0.1	1174.6	1.626
338.15 K, x1 = 0.128	1203.2	2.058
338.15 K, x1 = 0.16	1230.5	2.988
338.15 K, x1 = 0.192	1253.5	4.274
338.15 K, x1 = 0.22	1270.1	5.649
338.15 K, x1 = 0.252	1286	8.914
343.15 K, x1 = 0.023	1042.8	0.579
343.15 K, x1 = 0.045	1089.6	0.716
343.15 K, x1 = 0.07	1131.9	0.97
343.15 K, x1 = 0.1	1171.7	1.49
343.15 K, x1 = 0.128	1200	1.882
343.15 K, x1 = 0.16	1227.3	2.726
343.15 K, x1 = 0.192	1250.3	3.874
343.15 K, x1 = 0.22	1266.9	5.218
343.15 K, x1 = 0.252	1282.7	7.822
348.15 K, x1 = 0.023	1040.6	0.551
348.15 K, x1 = 0.045	1087.2	0.675
348.15 K, x1 = 0.07	1129.2	0.901
348.15 K, x1 = 0.1	1168.8	1.357
348.15 K, x1 = 0.128	1196.7	1.733
348.15 K, x1 = 0.16	1224.1	2.517
348.15 K, x1 = 0.192	1247.1	3.514
348.15 K, x1 = 0.22	1263.6	4.632
348.15 K, x1 = 0.252	1279.5	6.907

OCC[n+]1ccccc1.[Br-] [1-(2-hydroxyethyl)pyridinium bromide] + O
Details	mass density [kg/m3]	viscosity [mPa·s]
298.15 K, x1 = 0.022	1071.4	1.138
298.15 K, x1 = 0.045	1131.4	1.415
298.15 K, x1 = 0.066	1177.3	1.761
298.15 K, x1 = 0.085	1211	2.174
298.15 K, x1 = 0.114	1256.4	2.918
298.15 K, x1 = 0.152	1296.4	4.134
298.15 K, x1 = 0.195	1334.4	6.391
298.15 K, x1 = 0.226	1356.7	8.964
298.15 K, x1 = 0.261	1377.5	11.93
303.15 K, x1 = 0.022	1069.5	1.04
303.15 K, x1 = 0.045	1129.2	1.268
303.15 K, x1 = 0.066	1174.8	1.576
303.15 K, x1 = 0.085	1208.3	1.937
303.15 K, x1 = 0.114	1251.9	2.577
303.15 K, x1 = 0.152	1293.5	3.62
303.15 K, x1 = 0.195	1331.4	5.528
303.15 K, x1 = 0.226	1353.6	7.799
303.15 K, x1 = 0.261	1374.3	10.25
308.15 K, x1 = 0.022	1067.5	0.947
308.15 K, x1 = 0.045	1126.8	1.148
308.15 K, x1 = 0.066	1172.2	1.424
308.15 K, x1 = 0.085	1205.7	1.744
308.15 K, x1 = 0.114	1247.7	2.309
308.15 K, x1 = 0.152	1290.5	3.233
308.15 K, x1 = 0.195	1328.4	4.908
308.15 K, x1 = 0.226	1350.4	6.784
308.15 K, x1 = 0.261	1371.2	8.888
313.15 K, x1 = 0.022	1065.2	0.867
313.15 K, x1 = 0.045	1124.3	1.046
313.15 K, x1 = 0.066	1169.6	1.294
313.15 K, x1 = 0.085	1202.9	1.581
313.15 K, x1 = 0.114	1244.9	2.082
313.15 K, x1 = 0.152	1287.5	2.894
313.15 K, x1 = 0.195	1325.3	4.33
313.15 K, x1 = 0.226	1347.3	5.9
313.15 K, x1 = 0.261	1368	7.704
318.15 K, x1 = 0.022	1062.7	0.8
318.15 K, x1 = 0.045	1121.8	0.96
318.15 K, x1 = 0.066	1166.9	1.184
318.15 K, x1 = 0.085	1200.1	1.44
318.15 K, x1 = 0.114	1241.9	1.887
318.15 K, x1 = 0.152	1284.5	2.604
318.15 K, x1 = 0.195	1322.2	3.868
318.15 K, x1 = 0.226	1344.2	5.148
318.15 K, x1 = 0.261	1364.8	6.721
323.15 K, x1 = 0.022	1060.2	0.741
323.15 K, x1 = 0.045	1119.1	0.886
323.15 K, x1 = 0.066	1164.1	1.086
323.15 K, x1 = 0.085	1197.2	1.32
323.15 K, x1 = 0.114	1238.9	1.721
323.15 K, x1 = 0.152	1281.4	2.36
323.15 K, x1 = 0.195	1319	3.478
323.15 K, x1 = 0.226	1341	4.527
323.15 K, x1 = 0.261	1361.6	5.895
328.15 K, x1 = 0.022	1057.8	0.692
328.15 K, x1 = 0.045	1116.2	0.82
328.15 K, x1 = 0.066	1161.1	1.008
328.15 K, x1 = 0.085	1194.2	1.215
328.15 K, x1 = 0.114	1235.9	1.578
328.15 K, x1 = 0.152	1278.3	2.149
328.15 K, x1 = 0.195	1315.9	3.137
328.15 K, x1 = 0.226	1337.8	4.03
328.15 K, x1 = 0.261	1358.4	5.207
333.15 K, x1 = 0.022	1055.5	0.645
333.15 K, x1 = 0.045	1113.1	0.766
333.15 K, x1 = 0.066	1158.1	0.933
333.15 K, x1 = 0.085	1191.2	1.126
333.15 K, x1 = 0.114	1232.8	1.451
333.15 K, x1 = 0.152	1275.2	1.969
333.15 K, x1 = 0.195	1312.7	2.833
333.15 K, x1 = 0.226	1334.6	3.615
333.15 K, x1 = 0.261	1355.2	4.632
338.15 K, x1 = 0.022	1053.3	0.608
338.15 K, x1 = 0.045	1111	0.716
338.15 K, x1 = 0.066	1155.7	0.869
338.15 K, x1 = 0.085	1187.8	1.045
338.15 K, x1 = 0.114	1229.7	1.344
338.15 K, x1 = 0.152	1272	1.809
338.15 K, x1 = 0.195	1309.5	2.599
338.15 K, x1 = 0.226	1331.4	3.284
338.15 K, x1 = 0.261	1352	4.101
343.15 K, x1 = 0.022	1051	0.571
343.15 K, x1 = 0.045	1108.4	0.674
343.15 K, x1 = 0.066	1153	0.816
343.15 K, x1 = 0.085	1184.6	0.976
343.15 K, x1 = 0.114	1226.5	1.257
343.15 K, x1 = 0.152	1268.8	1.696
343.15 K, x1 = 0.195	1306.3	2.37
343.15 K, x1 = 0.226	1328.2	2.945
343.15 K, x1 = 0.261	1348.7	3.732
348.15 K, x1 = 0.022	1048.8	0.538
348.15 K, x1 = 0.045	1105.8	0.634
348.15 K, x1 = 0.066	1150.3	0.763
348.15 K, x1 = 0.085	1181.8	0.911
348.15 K, x1 = 0.114	1223.1	1.197
348.15 K, x1 = 0.152	1265.5	1.605
348.15 K, x1 = 0.195	1303	2.228
348.15 K, x1 = 0.226	1324.9	2.693
348.15 K, x1 = 0.261	1345.5	3.372
